Here are results for one molecule from patent US7342137B1, “Cyclohexenone compounds from Antrodia camphorata and application thereof” (Golden Biotechnology Corporation, priority 2007, dated 2008).

In general, IC50 refers to the concentration needed to halve the response being measured.

What all share (format): cell-based
Assay [1] concerns human hepatic-cancer cells, Hep G2. Description: In vitro survival assay (MTT), hepatic cancer cells Hep G2. Particulars: HepG2, 48 hours incubation. The protocol:
(§1) The NCI anti-cancer drug screen model was also adopted to test the anti-cancer effect of the compound isolated from example 1 in the present invention. The isolated compound of 4-hydroxy-2,3-dimethoxy-6-methyl-5(3,7,11-trimethyl-dodeca-2,6,10-trienyl)-cyclohex-2-enone from example 1 was added into the culture media of human hepatic-cancer cells, Hep 3B or Hep G2, for tumor cell survival assay.
(§2) The human hepatic-cancer cells, Hep 3B and Hep G2, were separately cultivated in media containing fetal calf serum for 24 hours. The proliferated cells were washed once with PBS, then treated with 1× trypsin-EDTA and centrifuged at 1200 rpm for 5 minutes. The supernatant was discarded and the cell pellet was resuspended in 10 ml of fresh culture medium by gently shaking. The cells were placed in a 96-well plate. Ethanol extracts of Antrodia camphorata (the control group, total extracts of Antrodia camphorata without purification) were added into each of the 96 wells at the following concentrations: 30, 10, 3, 1, 0.3, 0.1 and 0.03 μg/ml, respectively, while 4-hydroxy-2,3-dimethoxy-6-methyl-5(3,7,11-trimethyl-dodeca-2,6,10-trienyl)-cyclohex-2-enone (the experiment group) were added into each of the 96 wells at the following concentrations: 30, 10, 3, 1, 0.3, 0.1 and 0.03 μg/ml, respectively. […] The plates were read on an ELISA reader at wavelength of 570 nm to determine the survival rates.

In assay [2] the test system is human hepatic cancer cells, Hep G2. Description: In vitro Taxol add-on study (MTT), Hep G2. Particulars: Homo sapiens, HepG2, 0.0017 μg/ml Taxol + formula 2. The protocol: (§3) The experiment was also carried out according to NCI anti-cancer drug screen in vitro model. The human hepatic cancer cells, Hep 3B and Hep G2 […] were separately cultivated in media containing fetal calf serum for 24 hours. The proliferated cells were washed once with PBS, then treated with 1× trypsin-EDTA and centrifuged at 1200 rpm for 5 minutes. The supernatant was discarded and the cell pellet was resuspended in 10 ml of fresh culture medium by gently shaking. The Hep 3B cells were treated with 0.0043 μg/ml of Lovastatin for 72 hours and Hep G2 cells were treated with 0.0017 μg/ml of Taxol for 72 hours before placing in a 96-well plate. 4-hydroxy-2,3-dimethoxy-6-methyl-5(3,7,11-trimethyl-dodeca-2,6,10-trienyl)-cyclohex-2-enone obtained from example 1 were added respectively into each of the 96 wells at the following concentrations: 0 μg/ml (the control group); 30, 10, 3, 1, 0.3, 0.1 and 0.03 μg/ml (the experiment group). The cells were incubated at 37° C. in a 5% CO2 incubator for 48 hours. MTT was added in a concentration of 2.5 mg/ml into each well in dark and reacted for 4 hours, followed by the addition of 100 μl of lysis buffer to stop the reaction. The plates were read on an ELISA reader at wavelength of 570 nm to determine the survival rates.

The test system of assay [3] is human hepatic-cancer cells, Hep 3B. The experiment in a line: In vitro survival assay (MTT), hepatic cancer cells Hep 3B. As to conditions: Hep3B, 48 hours incubation. How it is done:
as §1, §2

Assay [4] relates to human breast-cancer cells, MDA-MB-231. The experiment in a line: In vitro Taxol add-on study (MTT), MDA-MB-231. As to conditions: Homo sapiens, 0.0017 μg/ml Taxol + formula 2. How it is done: as §3, with “breast-cancer” for “hepatic cancer”, “MCF-7” for “Hep 3B and Hep G2”, “The” for “The Hep 3B”, “placed” for “treated with 0.0043 μg/ml of Lovastatin for 72 hours and Hep G2 cells were treated with 0.0017 μg/ml of Taxol for 72 hours before placing”, “plate after 0.0017 μg/ml Taxol was added and treated for 72 hours.” for “plate.”, “terminate” for “stop”

Assay [5] concerns human prostate cancer cells, DU-145. Description: In vitro survival assay (MTT), prostate cancer cells DU-145. As to conditions: 48 hours incubation. The protocol: The NCI anti-cancer drug screen model was also adopted to test the anti-cancer effect of the compound isolated from example 1 in the present invention. The isolated compound of 4-hydroxy-2,3-dimethoxy-6-methyl-5(3,7,11-trimethyl-dodeca-2,6,10-trienyl)-cyclohex-2-enone from example 1 was added into the culture media of human prostate cancer cells, LNCaP or DU-145, for tumor cell survival assay.
as §2, with “LNCaP” for “Hep 3B”, “DU-145,” for “Hep G2,”, “or” for “were added into each of the 96 wells at the following concentrations: 30, 10, 3, 1, 0.3, 0.1 and 0.03 μg/ml, respectively, while”, “respectively. The cells were incubated at 37° C. in a 5% CO2 incubator for 48 hours.” for “respectively.”

In the case of `COC1=C(OC)C(O)C(C/C=C(\C)CC/C=C(\C)CCC=C(C)C)C(C)C1=O` (centres unmarked) [formula 2, 4-hydroxy-2,3-dimethoxy-6-methyl-5(3,7,11-trimethyl-dodeca-2,6,10-trienyl)-cyclohex-2-enone], the IC50 in assay [1] came to 1.68 µg/mL; in assay [2] it was 0.008 µg/mL; in assay [3], 0.005 µg/mL; in assay [4], 0.011 µg/mL; in assay [5], 1.81 µg/mL.
